The text below walks through data of ChEMBL document CHEMBL1201862, “PubChem BioAssay data set” (2004).

Assay in all cases: NCI anticancer screen, dose series, 48 h
For assay [1], the system named is K562.
Assay [2] relates to COLO 205.
Assay [3] has as its system HCT-15.
For assay [4], the system named is OVCAR-5.
In assay [5] the test system is TK-10.
Assay [6] has as its system SF-295.
Assay [7] deals with LXFL 529.
Assay [8] has as its system CCRF-CEM.
In assay [9] the test system is A498.
In assay [10] the test system is UACC-257.
Assay [11] deals with SK-OV-3.
In assay [12] the test system is SK-MEL-2.
The test system of assay [13] is MOLT-4.
Assay [14] concerns NCI-H23.
The test system of assay [15] is NCI-H226.
For assay [16], the system named is SNB-19.
For assay [17], the system named is ACHN.

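Assay format: 96-well plates, 48-hour exposure. GI50 marks 50% less growth.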 Active and inactive are the calls of the source. Cut-off read from the data, not from the text of the source: active = GI50 up to about 1.1 µM and inactive = higher.

As to `O=C1OC(CC(=O)c2ccc(Cl)cc2)C(Cl)=C1Cl` (stereo not given), the GI50 in assay [1] is 54.6 µM (inactive); in assay [2] it was > 100 µM (inactive); in assay [3], over 100 µM; in assay [4], > 100 µM (inactive); in assay [5], > 100 µM (inactive); in assay [6] it was > 100 µM (inactive). Besides, the GI50 was > 100 µM (inactive) in assay [7]; 35.6 µM (inactive) in assay [8]; > 100 µM (inactive) in assay [9]; > 100 µM (inactive) in assay [10]; > 100 µM (inactive) in assay [11]; > 100 µM (inactive) in assay [12]. For the same compound, the GI50 in [13] is 39.2 µM (inactive); in [14], > 100 µM (inactive); in [15], > 100 µM (inactive); in assay [16], > 100 µM (inactive); in assay [17], > 100 µM (inactive).

As for `COC(=O)C(Cc1nc2ccc(Cl)cc2nc1O)/C(=N/NC(N)=O)C(=O)Nc1ccc(Cl)cc1` (stereo not given), the GI50 in [1] is > 100 µM (inactive); in assay [2] it was > 100 µM (inactive); in assay [3], over 100 µM; in assay [4], > 100 µM (inactive); in assay [5], > 100 µM (inactive); in assay [6], > 100 µM (inactive). In addition, the GI50 in assay [7], in assay [8], in [9], in [10], in assay [11] and in assay [12] was > 100 µM (inactive) throughout. The GI50 in assay [13], in assay [14], in assay [15], in assay [16] and in [17] was > 100 µM (inactive) in each case.

As for `CC1C[C@@H]2C(=O)NC(=O)[C@@H]2c2c1c1ccccc1n2C` (stereo not given in full), the GI50 in assay [1] is > 100 µM (inactive); in assay [2] it was > 100 µM (inactive); in assay [3], over 100 µM; in assay [5] it was > 100 µM (inactive); in assay [6] it was > 100 µM (inactive); in assay [7], > 100 µM (inactive). The GI50 was 97.9 µM (inactive) in [8]; > 100 µM (inactive) in assay [9]; > 100 µM (inactive) in assay [10]; > 100 µM (inactive) in [11]; > 100 µM (inactive) in [12]; > 100 µM (inactive) in assay [13]. The GI50 in [14], in assay [15] and in assay [16] was > 100 µM (inactive) in each case.

In the case of `Cc1cccc(C(C)C)c1N1C(=O)C(=O)C(c2nc3ccccc3o2)C(=O)C1=O`, the GI50 is 49 µM (inactive) in assay [1]; 41.8 µM (inactive) in assay [2]; 35.5 µM in assay [3]; > 100 µM (inactive) in assay [4]; > 100 µM (inactive) in [5]; > 100 µM (inactive) in assay [6]. In addition, the GI50 in assay [7] is 61.1 µM (inactive); in assay [8], 20.2 µM (inactive); in assay [9], > 100 µM (inactive); in assay [10], 51.9 µM (inactive); in assay [11], > 100 µM (inactive); in assay [12], > 100 µM (inactive). Further, the GI50 in [13] is 24.7 µM (inactive); in assay [14], 80.2 µM (inactive); in assay [15], > 100 µM (inactive); in assay [16], > 100 µM (inactive); in assay [17], > 100 µM (inactive).

On to `COc1cc2c(cc1OC)C(=O)Cc1ccc(OC)c(OC)c1CN(C)CC2`, for which the GI50 in assay [1] was > 100 µM (inactive); in [2] it was > 100 µM (inactive); in assay [3], over 100 µM; in [4] it was > 100 µM (inactive); in [5], > 100 µM (inactive); in [7] it was > 100 µM (inactive). Besides, the GI50 in [8] was > 100 µM (inactive); in assay [9], 11.9 µM (inactive); in assay [10] it was > 100 µM (inactive); in assay [11], > 100 µM (inactive); in assay [12], > 100 µM (inactive); in assay [13], > 100 µM (inactive). Besides, the GI50 in assay [14] is > 100 µM (inactive); in assay [15], > 100 µM (inactive); in assay [16] it was > 100 µM (inactive); in assay [17], 27.7 µM (inactive).

For the compound `Cc1nc2ccncc2[nH]1`, the GI50 was > 100 µM (inactive) in [1]; > 100 µM (inactive) in [2]; over 100 µM in assay [3]; > 100 µM (inactive) in assay [4]; > 100 µM (inactive) in [5]; > 100 µM (inactive) in assay [6]. In addition, the GI50 in assay [7], in [8], in assay [9], in assay [10], in assay [12] and in assay [13] was > 100 µM (inactive) throughout. Also, the GI50 in assay [14], in [15], in assay [16] and in [17] was > 100 µM (inactive) each time.

Consider `N#Cc1cccc(N2C(=O)c3ccc(C(=O)c4ccc5c(c4)C(=O)N(c4cccc(C#N)c4)C5=O)cc3C2=O)c1`, for which the GI50 in assay [1] is > 100 µM (inactive); in [2], > 100 µM (inactive); in assay [3] it was over 100 µM; in assay [4], > 100 µM (inactive); in assay [5], > 100 µM (inactive); in assay [6], > 100 µM (inactive). Besides, the GI50 in assay [7], in [8], in assay [9], in [10], in assay [11] and in assay [12] was > 100 µM (inactive) each time. Besides, the GI50 in [13], in assay [14], in [15] and in assay [16] was > 100 µM (inactive) throughout.

In the case of `CN1c2ccccc2N(C)C2C1N(C)c1ccccc1N2C` (stereo not given), the GI50 in [1] is 3.42 µM (inactive); in [2], 10.8 µM (inactive); in [3] it was 4.25 µM; in [4] it was 59.3 µM (inactive); in assay [5], 36.9 µM (inactive); in [6], 31.3 µM (inactive). Further, the GI50 was 12.6 µM (inactive) in assay [7]; 2.81 µM (inactive) in [8]; 31.6 µM (inactive) in assay [9]; 6.67 µM (inactive) in assay [10]; 9.59 µM (inactive) in assay [12]; 2.86 µM (inactive) in [13]. Moreover, the GI50 in assay [14] was 16.8 µM (inactive); in assay [15], 23.2 µM (inactive); in [16], 18.8 µM (inactive); in [17] it was 40.1 µM (inactive).

Consider `COc1ccc(/C(=N/NC(N)=O)C2(O)C(=O)Nc3ccc([N+](=O)[O-])cc32)cc1` (stereo not given), for which the GI50 is 22 µM (inactive) in [1]; 23 µM (inactive) in assay [2]; 20.7 µM in [3]; 31.5 µM (inactive) in assay [4]; 18.3 µM (inactive) in assay [7]; 11.6 µM (inactive) in assay [8]. The GI50 in [9] is 29.2 µM (inactive); in assay [10], 21.1 µM (inactive); in [11] it was > 100 µM (inactive); in [12], 21.6 µM (inactive); in [13], 19.6 µM (inactive); in assay [14] it was 17 µM (inactive). The GI50 in [15] was 45.7 µM (inactive); in [16], > 10 µM (inactive); in [17], 16.6 µM (inactive).
